Data reported in ChEMBL document CHEMBL3885881, “DrugMatrix”.

Species on record: Rattus norvegicus
Test: DrugMatrix - Regimen: Daily Repeat
Format: toxicity, organism-based, Sprague-Dawley
Set-up: regimen Daily Repeat, gender Male, age 6-8 weeks
Settings: in vivo, po, route oral GAVAGE, vehicle 100 % WATER; for ABSOLUTE BASOPHIL / ABSOLUTE EOSINOPHIL / ABSOLUTE LYMPHOCYTE / ABSOLUTE MONOCYTE / ABSOLUTE SEGMENTED NEUTROPHIL / BASOPHIL / EOSINOPHIL / ERYTHROCYTE COUNT / HEMATOCRIT / HEMOGLOBIN / LEUKOCYTE COUNT / LYMPHOCYTE / MEAN CORPUSCULAR HEMOGLOBIN / MEAN CORPUSCULAR HEMOGLOBIN CONCENTRATION / MEAN CORPUSCULAR VOLUME / MONOCYTE / NEUTROPHIL / NUCLEATED RED BLOOD CELLS / PLATELET COUNT: tissue Blood; for ALANINE AMINOTRANSFERASE / ALBUMIN / ALKALINE PHOSPHATASE / ASPARTATE AMINOTRANSFERASE / BLOOD UREA NITROGEN / CARBON DIOXIDE / CHLORIDE / CHOLESTEROL / CREATINE PHOSPHOKINASE / CREATININE / GLUCOSE / LACTATE DEHYDROGENASE / LIPASE / PHOSPHORUS / POTASSIUM / SODIUM / TOTAL BILIRUBIN / TOTAL PROTEIN / URIC ACID: tissue Plasma
[1] = 10 mg/kg, 120 h, dose level Low, time 5 day
[2] = 230 mg/kg, 72 h, dose level High, time 3 day
[3] = 230 mg/kg, 120 h, dose level High, time 5 day

CCN(CC)CC#CCOC(=O)C(O)(c1ccccc1)C1CCCCC1 (centres undefined) [OXYBUTYNIN]
ABSOLUTE BASOPHIL [1]: 0 CELLS/uL | ABSOLUTE EOSINOPHIL [1]: 0 CELLS/uL | ABSOLUTE LYMPHOCYTE [1]: 12363 CELLS/uL | ABSOLUTE MONOCYTE [1]: 41 CELLS/uL | ABSOLUTE SEGMENTED NEUTROPHIL [1]: 1896 CELLS/uL | BASOPHIL [1]: 0% | EOSINOPHIL [1]: 0% | ERYTHROCYTE COUNT [1]: 5.64 x10E6/uL | HEMATOCRIT [1]: 34.63% | HEMOGLOBIN [1]: 13.8 G/DL | LEUKOCYTE COUNT [1]: 14.3 x10E3/uL | LYMPHOCYTE [1]: 86.33% | MEAN CORPUSCULAR HEMOGLOBIN [1]: 24.47 pg | MEAN CORPUSCULAR HEMOGLOBIN CONCENTRATION [1]: 39.83 G/DL | MEAN CORPUSCULAR VOLUME [1]: 61.4 fL | MONOCYTE [1]: 0.33% | NEUTROPHIL [1]: 13.33% | NUCLEATED RED BLOOD CELLS [1]: 0 /100WBC | PLATELET COUNT [1]: 1196.33 x10E3/uL | ALANINE AMINOTRANSFERASE [1]: 57 u/L | ALBUMIN [1]: 4.07 G/DL | ALKALINE PHOSPHATASE [1]: 391.67 u/L | ASPARTATE AMINOTRANSFERASE [1]: 79 u/L | BLOOD UREA NITROGEN [1]: 17.67 mg/dL | CARBON DIOXIDE [1]: 27 mmol/L | CHLORIDE [1]: 99.67 MEQ/L | CHOLESTEROL [1]: 67 mg/dL | CREATINE PHOSPHOKINASE [1]: 306.33 u/L | CREATININE [1]: 0.2 mg/dL | GLUCOSE [1]: 152.33 mg/dL | LACTATE DEHYDROGENASE [1]: 146.67 u/L | LIPASE [1]: 9 u/L | PHOSPHORUS [1]: 11.87 mg/dL | POTASSIUM [1]: 6.33 MEQ/L | SODIUM [1]: 141.53 MEQ/L | TOTAL BILIRUBIN [1]: 0.23 mg/dL | TOTAL PROTEIN [1]: 5.87 G/DL | URIC ACID [1]: 1.93 mg/dL | ABSOLUTE BASOPHIL [2]: 0 CELLS/uL | ABSOLUTE EOSINOPHIL [2]: 99.33 CELLS/uL | ABSOLUTE LYMPHOCYTE [2]: 11911 CELLS/uL | ABSOLUTE MONOCYTE [2]: 110.67 CELLS/uL | ABSOLUTE SEGMENTED NEUTROPHIL [2]: 1845.67 CELLS/uL | BASOPHIL [2]: 0% | EOSINOPHIL [2]: 0.67% | ERYTHROCYTE COUNT [2]: 6.5 x10E6/uL | HEMATOCRIT [2]: 39.53% | HEMOGLOBIN [2]: 15.4 G/DL | LEUKOCYTE COUNT [2]: 13.97 x10E3/uL | LYMPHOCYTE [2]: 85.67% | MEAN CORPUSCULAR HEMOGLOBIN [2]: 23.7 pg | MEAN CORPUSCULAR HEMOGLOBIN CONCENTRATION [2]: 38.93 G/DL | MEAN CORPUSCULAR VOLUME [2]: 60.77 fL | MONOCYTE [2]: 0.67% | NEUTROPHIL [2]: 13% | NUCLEATED RED BLOOD CELLS [2]: 0 /100WBC | PLATELET COUNT [2]: 1396.33 x10E3/uL | ALANINE AMINOTRANSFERASE [2]: 51.33 u/L | ALBUMIN [2]: 4.33 G/DL | ALKALINE PHOSPHATASE [2]: 293.33 u/L | ASPARTATE AMINOTRANSFERASE [2]: 83.33 u/L | BLOOD UREA NITROGEN [2]: 16 mg/dL | CARBON DIOXIDE [2]: 29.67 mmol/L | CHLORIDE [2]: 98 MEQ/L | CHOLESTEROL [2]: 57.33 mg/dL | CREATINE PHOSPHOKINASE [2]: 488 u/L | CREATININE [2]: 0.18 mg/dL | GLUCOSE [2]: 140.67 mg/dL | LACTATE DEHYDROGENASE [2]: 180 u/L | LIPASE [2]: 9.67 u/L | PHOSPHORUS [2]: 11.4 mg/dL | POTASSIUM [2]: 6.48 MEQ/L | SODIUM [2]: 141.17 MEQ/L | TOTAL BILIRUBIN [2]: 0.23 mg/dL | TOTAL PROTEIN [2]: 5.87 G/DL | URIC ACID [2]: 2.47 mg/dL | ABSOLUTE BASOPHIL [3]: 0 CELLS/uL | ABSOLUTE EOSINOPHIL [3]: 0 CELLS/uL | ABSOLUTE LYMPHOCYTE [3]: 14094.33 CELLS/uL | ABSOLUTE MONOCYTE [3]: 0 CELLS/uL | ABSOLUTE SEGMENTED NEUTROPHIL [3]: 1405.67 CELLS/uL | BASOPHIL [3]: 0% | EOSINOPHIL [3]: 0% | ERYTHROCYTE COUNT [3]: 6.31 x10E6/uL | HEMATOCRIT [3]: 37.53% | HEMOGLOBIN [3]: 15.13 G/DL | LEUKOCYTE COUNT [3]: 15.5 x10E3/uL | LYMPHOCYTE [3]: 90.67% | MEAN CORPUSCULAR HEMOGLOBIN [3]: 23.97 pg | MEAN CORPUSCULAR HEMOGLOBIN CONCENTRATION [3]: 40.33 G/DL | MEAN CORPUSCULAR VOLUME [3]: 59.43 fL | MONOCYTE [3]: 0% | NEUTROPHIL [3]: 9.33% | NUCLEATED RED BLOOD CELLS [3]: 0 /100WBC | PLATELET COUNT [3]: 1402.33 x10E3/uL | ALANINE AMINOTRANSFERASE [3]: 64.67 u/L | ALBUMIN [3]: 4.33 G/DL | ALKALINE PHOSPHATASE [3]: 412.33 u/L | ASPARTATE AMINOTRANSFERASE [3]: 87 u/L | BLOOD UREA NITROGEN [3]: 15.67 mg/dL | CARBON DIOXIDE [3]: 26.67 mmol/L | CHLORIDE [3]: 100.33 MEQ/L | CHOLESTEROL [3]: 59.67 mg/dL | CREATINE PHOSPHOKINASE [3]: 224 u/L | CREATININE [3]: 0.17 mg/dL | GLUCOSE [3]: 140.33 mg/dL | LACTATE DEHYDROGENASE [3]: 208.33 u/L | LIPASE [3]: 9.33 u/L | PHOSPHORUS [3]: 10 mg/dL | POTASSIUM [3]: 6.76 MEQ/L | SODIUM [3]: 143.4 MEQ/L | TOTAL BILIRUBIN [3]: 0.2 mg/dL | TOTAL PROTEIN [3]: 5.9 G/DL | URIC ACID [3]: 2.23 mg/dL
